From patent US7173034B2, “Respiratory syncytial virus replication inhibitors” (Janssen Pharmaceutica, N.V., priority 1999, dated 2007)
Each block holds one molecule with its values, some of them ahead of it.

Assays:
[1] = Cytotoxicity in mock-infected HeLa cells (tetrazolium/MTT colorimetric assay); type: cell-based; conditions: human
Description: (§1) The percent protection against cytopathology caused by viruses (antiviral activity or IC50) achieved by tested compounds and their cytotoxicity (CC50) were both calculated from dose-response curves.
Automated tetrazolium-based colorimetric assays were used for determination of IC50 and CC50 of test compounds. Flat-bottom, 96-well plastic microtiter trays were filled with 180 μl of Eagle's Basal Medium, supplemented with 5% FCS (0% for FLU) and 20 mM Hepes buffer. Subsequently, stock solutions (7.8× final test concentration) of compounds were added in 45 μl volumes to a series of triplicate wells so as to allow simultaneous evaluation of their effects on virus- and mock-infected cells. Five five-fold dilutions were made directly in the microtiter trays using a robot system. Untreated virus controls, and HeLa cell controls were included in each test. Approximately 100 TCID50 of Respiratory Syncytial Virus was added to two of the three rows in a volume of 50 μl. […] Finally, the absorbances were read in an eight-channel computer-controlled photometer (Multiskan MCC, Flow Laboratories) at two wavelengths (540 and 690 nm). The absorbance measured at 690 nm was automatically subtracted from the absorbance at 540 nm, so as to eliminate the effects of non-specific absorption.

[2] = tested on: Respiratory Syncytial Virus; experiment: microbe, parasite or virus in culture; type: cell-based; conditions: for SI (selectivity index, CC50 divided by IC50): CC50 (HeLa cells) / IC50 (Respiratory Syncytial Virus); for IC50: human respiratory syncytial virus, 168 h, Respiratory Syncytial Virus in HeLa cells, seven days after infection, tetrazolium-based colorimetric assay, read-out: IC50 (antiviral activity, protection against cytopathology caused by virus)
Description: as §1
Automated tetrazolium-based colorimetric assays were used for determination of IC50 and CC50 of test compounds. Flat-bottom, 96-well plastic microtiter trays were filled with 180 μl of Eagle's Basal Medium, supplemented with 5% FCS (0% for FLU) and 20 mM Hepes buffer. Subsequently, stock solutions (7.8× final test concentration) of compounds were added in 45 μl volumes to a series of triplicate wells so as to allow simultaneous evaluation of their effects on virus- and mock-infected cells. Five five-fold dilutions were made directly in the microtiter trays using a robot system. Untreated virus controls, and HeLa cell controls were included in each test. Approximately 100 TCID50 of Respiratory Syncytial Virus was added to two of the three rows in a volume of 50 μl. The same volume of medium was added to the third row to measure the cytotoxicity of the compounds at the same concentrations as those used to measure the antiviral activity. After two hours of incubation, a suspension (4×10^5 cells/ml) of HeLa cells were added to all wells in a volume of 50 μl. The cultures were incubated at 37° C. in a 5% CO2 atmosphere. Seven days after infection the cytotoxicity and the antiviral activity was examined spectrophotometrically. To each well of the microtiter tray, 25 μl of a solution of MTT (3-(4,5-dimethylthiazol-2-yl)-2,5-diphenyltetrazolium bromide) was added. The trays were further incubated at 37° C. for 2 hours, after which the medium was removed from each cup. Solubilization of the formazan crystals was achieved by adding 100 μl 2-propanol. Complete dissolution of the formazan crystals were obtained after the trays have been placed on a plate shaker for 10 min. Finally, the absorbances were read in an eight-channel computer-controlled photometer (Multiskan MCC, Flow Laboratories) at two wavelengths (540 and 690 nm). The absorbance measured at 690 nm was automatically subtracted from the absorbance at 540 nm, so as to eliminate the effects of non-specific absorption.

melting point: 146 °C
Compound: O=CNCCN1CCC(Nc2nc3ccccc3n2Cc2ccccn2)CC1 [Compound 18]

melting point: 112 °C
Compound: CCC(CN)N1CCC(Nc2nc3ccccc3n2Cc2ccccn2)CC1 (centres unmarked) [Compound 23]

melting point: 115 °C
Compound: CC(C)C(N)CN1CCC(Nc2nc3ccccc3n2Cc2ccccn2)CC1 (centres unmarked) [Compound 24]

IC50 [2]: 12.6 nM
Compound: Cc1ccc(OCCO)c(Cn2c(NC3CCN(CCN)CC3)nc3ccccc32)n1 [Compound 27]
CC50 at 7 days [1]: > 100000 nM
SI (selectivity index, CC50 divided by IC50) [2]: >7943

melting point: 85 °C
Compound: CC(CN)N1CCC(Nc2nc3ccccc3n2C(C)c2ccccn2)CC1 (centres unmarked) [Compound 30]

melting point: 94 °C
Compound: NCCCCN1CCC(Nc2nc3ccccc3n2Cc2ccccn2)CC1 [Compound 31]

Compound: Cc1ccc(O)c(Cn2c(NC3CCN(CCN)CC3)nc3c(C)cccc32)n1 [Compound 357]
CC50 at 7 days ([1]; mock-infected HeLa cells, seven days, tetrazolium-based colorimetric assay): > 10 nM
SI (selectivity index, CC50 divided by IC50) [2]: >79
IC50 [2]: 0.13 nM
